Test results as given in publication PMC5773651, “Customised in vitro model to detect human metabolism-dependent idiosyncratic drug-induced liver injury” (Archives of Toxicology, 2017).
Where two headings read alike, the source gives them in different places. Marks after values point to notes of the source that are not given here.

Experiments:
Ad-HepG2 and HepG2 cells = format: cell-based, human
Description: Finally, we explored the toxicity of the amoxycillin/clavulanate combination, one of the most commonly implicated agents in severe idiosyncratic liver injury. Unlike other studied drugs, the hepatotoxicity of amoxycillin/clavulanate has not been related to CYP metabolism.

HepG2 cells [1] = test: Cell viability (PI), IC50, control HepG2 cells; format: cell-based; details: Homo sapiens; control non-transduced HepG2; 24 h; unit inferred, tested range in µM; read-out: IC50 (cell viability), C
[2] = system: HepG2 cells transduced with AdCYP2E1; test: Cell viability (PI), IC50, AdCYP2E1-HepG2; format: cell-based; details: Homo sapiens, unit inferred, tested range in µM
Experimental: (§1) For subculturing purposes, cells were detached by treatment with 0.25% trypsin/0.02% EDTA at 37 °C. For the adenovirus infection studies, cells were seeded in 96-well plates (5000 cells/well) and adenovirus-containing medium was added 48 h later. After 24 h, cells were transferred to the adenovirus-free medium and cultured for an additional 24-h period prior to the incubations performed with the test chemicals. To optimise the expression of the functional enzymes in the adenovirus-transduced HepG2 (Ad-HepG2) cells, different doses (MOI, multiplicity of infection, defined as plaque formation units per cell) of each adenovirus were tested.
(§2) The drugs included in the study were chosen based on previous information about their hepatotoxicity. Information on the potential mechanisms implicated in the toxicity of each compound and the major enzymes involved in their metabolism is summarised in Table 1. HepG2 or Ad-HepG2 (48 h post-infection) cells were exposed for 24 h to eight concentrations of the tested compounds. Each experimental condition was repeated independently three times (with three wells measured each time). The stock solutions of compounds were prepared in DMSO and were conveniently diluted in the culture medium to obtain the desired final concentrations. The final DMSO concentration in the culture medium was 0.5% (v/v), and the control cultures were treated with the same amount of solvent.
(§3) Following treatments, cells were simultaneously loaded with several fluorescent dyes to measure multiple biomarkers of cell toxicity. […] Information about the probes is summarised in Supplementary Table S2.
(§4) After incubating with dyes, cells were imaged by the Scan^R system (Olympus, Germany). Dyes were excited, and their fluorescence was monitored at the excitation and emission wavelengths at appropriate filter settings. The collected images were analysed using the Scan^R analysis module, which allows the simultaneous quantification of subcellular structures that are stained by different fluorescent probes.

[3] = system: HepG2 cells transduced with AdCYP2E1; details: human, 24 h
Experimental: as §1, §2, §3, §4

[4] = system: HepG2 cells transduced with AdGSTM1; details: human, 24 h
Experimental: as §1, §2, §3, §4

HepG2 cells [5] = details: human, 24 h
Experimental: as §1, §2, §3, §4

[6] = system: HepG2 cells co-transduced with AdCYP2E1 and AdCYP1A2; test: HCS hepatotoxicity assay (MEC, TR), AdCYP2E1 + AdCYP1A2 HepG2; format: cell-based, human; details: 24 h; for MEC Apoptosis / MEC Calcium / MEC MMP / MEC Mitochondrial superoxide / MEC ROS: unit inferred, tested range in mM
Experimental: as §1, §2, §3, §4

[7] = system: HepG2 cells co-transduced with AdCYP2E1, CYP1A2 and AdGSTM1; test: HCS hepatotoxicity assay (MEC, TR), AdCYP2E1 + AdCYP1A2 + AdGSTM1 HepG2; format: cell-based, human; details: 24 h; for MEC Apoptosis / MEC Calcium / MEC MMP / MEC Mitochondrial superoxide / MEC ROS: unit inferred, tested range in mM
Experimental: as §1, §2, §3, §4

[8] = cited from earlier work; for Bioactivation / Enzyme: major enzyme(s) involved in the bioactivation (denoted as *) or detoxification of the drug: previous information; for Toxicity (mechanisms of toxicity): ref Ashrafian et al. [2007], Donato et al. [2009], Fromenty and Pessayre [1997], Rolo et al. [2000], Tolosa et al. [2012b]; for DILI category: ref Gustafsson et al. ([2014])
[9] = system: HepG2 cells co-transduced with AdCYP2E1 and AdGSTM1; test: HCS hepatotoxicity assay (MEC, TR), AdCYP2E1 + AdGSTM1 HepG2; format: cell-based, human; details: CYP2E1-10X + GSTM1, 24 h
Experimental: as §1, §2, §3, §4

[10] = system: HepG2 cells transduced with AdCYP2C9; test: Cell viability (PI), IC50, AdCYP2C9-HepG2; format: cell-based; details: Homo sapiens, unit inferred, tested range in µM
[11] = system: HepG2 cells transduced with AdCYP2B6; test: Cell viability (PI), IC50, AdCYP2B6-HepG2; format: cell-based; details: Homo sapiens, unit inferred, tested range in µM
Experimental: as §1, §2, §3, §4

[12] = system: HepG2 cells transduced with AdCYP2B6; test: HCS hepatotoxicity assay (MEC, TR), AdCYP2B6-HepG2; format: cell-based, human; details: 24 h, unit inferred, tested range in mM
Experimental: as §1
The drugs included in the study were chosen based on previous information about their hepatotoxicity. […] Each experimental condition was repeated independently three times (with three wells measured each time). […]
as §4

[13] = ref Atienzar et al. ([2014]), Garside et al. ([2014]), Tolosa et al. ([2012b]); cited from earlier work
[14] = ADV CYP2E1 x1, 24 h, read-out: IC50 (cell viability), ADV dose x1
[15] = ADV CYP2E1 x4, 24 h, read-out: IC50 (cell viability), ADV dose x4
[16] = ADV CYP2E1 x10, 24 h, read-out: IC50 (cell viability), ADV dose x10
[17] = unit inferred, tested range in mM
[18] = unit not given, tested range in mM

Compound: Amoxicillin/clavulanate
- ROS production (Ad-HepG2 and HepG2 cells): significant increase

Compound: CC(=O)Nc1ccc(O)cc1 [Acetaminophen]
- IC50 (HepG2 cells [1]): > 15000 µM
- IC50 [2, 14]: > 15000 µM
- IC50 [2, 15]: > 15000 µM
- IC50 [2, 16]: 10600 µM
- concentrations needed to significantly alter ROS generation and calcium levels [3]: 4000 to 6000 µM
- MEC Apoptosis [4]: 4 µM
- MEC Calcium [4]: 10
- MEC MMP [4]: 15
- MEC Mitochondrial superoxide [4]: 6
- MEC ROS [4]: 15
- TR [4]: 3.5
- MEC Apoptosis (HepG2 cells [5]): 4 µM
- MEC Calcium (HepG2 cells [5]): 6
- MEC MMP (HepG2 cells [5]): 15
- MEC Mitochondrial superoxide (HepG2 cells [5]): 4
- MEC ROS (HepG2 cells [5]): 10
- TR (HepG2 cells [5]): 3.5
- MEC Apoptosis ([6]; CYP2E1-1X + CYP1A2-1X): 1 mM
- MEC Calcium ([6]; CYP2E1-1X + CYP1A2-1X): 6 mM
- MEC MMP ([6]; CYP2E1-1X + CYP1A2-1X): 10 mM
- MEC Mitochondrial superoxide ([6]; CYP2E1-1X + CYP1A2-1X): 1 mM
- MEC ROS ([6]; CYP2E1-1X + CYP1A2-1X): 6 mM
- TR ([6]; CYP2E1-4X + CYP1A2-4X, TR = 100 x Cmax/lowest MEC): 27.8
- MEC Apoptosis ([6]; CYP2E1-4X + CYP1A2-4X): 0.5 mM
- MEC Calcium ([6]; CYP2E1-4X + CYP1A2-4X): 0.5 mM
- MEC MMP ([6]; CYP2E1-4X + CYP1A2-4X): 6 mM
- MEC Mitochondrial superoxide ([6]; CYP2E1-4X + CYP1A2-4X): 0.5 mM
- MEC ROS ([6]; CYP2E1-4X + CYP1A2-4X): 0.5 mM
- concentration that induced significant changes in the ROS generation and calcium levels ([6]; cells co-transduced with AdCYP2E1 and AdCYP1A2, intermediate doses of adenoviruses): 500 µM
- TR ([7]; CYP2E1-1X + CYP1A2-1X + GSTM1, TR = 100 x Cmax/lowest MEC): 3.5
- MEC Apoptosis ([7]; CYP2E1-1X + CYP1A2-1X + GSTM1): 4 mM
- MEC Calcium ([7]; CYP2E1-1X + CYP1A2-1X + GSTM1): 15 mM
- MEC MMP ([7]; CYP2E1-1X + CYP1A2-1X + GSTM1): 15 mM
- MEC Mitochondrial superoxide ([7]; CYP2E1-1X + CYP1A2-1X + GSTM1): 6 mM
- MEC ROS ([7]; CYP2E1-1X + CYP1A2-1X + GSTM1): 15 mM
- MEC Apoptosis ([7]; CYP2E1-4X + CYP1A2-4X + GSTM1): 1 mM
- MEC Calcium ([7]; CYP2E1-4X + CYP1A2-4X + GSTM1): 6 mM
- MEC MMP ([7]; CYP2E1-4X + CYP1A2-4X + GSTM1): 10 mM
- MEC Mitochondrial superoxide ([7]; CYP2E1-4X + CYP1A2-4X + GSTM1): 4 mM
- MEC ROS ([7]; CYP2E1-4X + CYP1A2-4X + GSTM1): 6 mM
- Bioactivation [8]: Yes
- Enzyme: major enzyme(s) involved in the bioactivation (denoted as *) or detoxification of the drug [8]: CYP2E1* (CYP1A2*, CYP3A4*) GST
- Toxicity (mechanisms of toxicity) [8]: OS, AP
- DILI category [8]: DILI reports

Compound: NNC(=O)c1ccncc1 [Isoniazid]
- IC50 (HepG2 cells [1]): 61500 µM
- IC50 [2, 14]: 52900 µM
- IC50 [2, 15]: 44500 µM
- IC50 [2, 16]: 46600 µM
- MEC MMP [3]: >50
- MEC Apoptosis [4]: 30 µM
- MEC Calcium [4]: >50
- MEC MMP [4]: >50
- MEC Mitochondrial superoxide [4]: >50
- MEC ROS [4]: >50
- TR [4]: 0.25
- MEC Apoptosis (HepG2 cells [5]): 30 µM
- MEC Calcium (HepG2 cells [5]): 30
- MEC MMP (HepG2 cells [5]): >50
- MEC Mitochondrial superoxide (HepG2 cells [5]): 30
- MEC ROS (HepG2 cells [5]): >50
- TR (HepG2 cells [5]): 0.25
- TR ([9]; TR = 100 x Cmax/lowest MEC): 0.38
- MEC Calcium [9, 17]: 20 mM
- MEC Mitochondrial superoxide [9, 17]: 30 mM
- MEC ROS [9, 17]: > 50 mM
- MEC Apoptosis [9, 18]: 30
- MEC MMP [9, 18]: >50
- Bioactivation [8]: Yes
- Enzyme: major enzyme(s) involved in the bioactivation (denoted as *) or detoxification of the drug [8]: CYP2E1*, GSTM1, NAT2
- Toxicity (mechanisms of toxicity) [8]: MI, OS, AP
- DILI category [8]: Severe

Compound: CCCC(CCC)C(=O)O [Valproic acid]
- IC50 (HepG2 cells [1]): 14800 µM
- IC50 ([10]; ADV CYP2C99 x1, 24 h, read-out: IC50 (cell viability), ADV dose x1): 14400 µM
- IC50 ([10]; ADV CYP2C99 x4, 24 h, read-out: IC50 (cell viability), ADV dose x4): 16000 µM
- IC50 ([10]; ADV CYP2C99 x10, 24 h, read-out: IC50 (cell viability), ADV dose x10): 10100 µM
- IC50 ([11]; ADV CYP2B6 x1, 24 h, read-out: IC50 (cell viability), ADV dose x1): 13300 µM
- IC50 ([11]; ADV CYP2B6 x4, 24 h, read-out: IC50 (cell viability), ADV dose x4): 8600 µM
- IC50 ([11]; ADV CYP2B6 x10, 24 h, read-out: IC50 (cell viability), ADV dose x10): 8700 µM
- MEC Lipids (HepG2 cells [5]): 6
- MEC ROS ([12]; CYP2B6-4X): 10 mM
- MEC ROS ([12]; CYP2B6-10X): 8 mM
- Cmax [13]: 166 µM
- Bioactivation [8]: Yes
- Enzyme: major enzyme(s) involved in the bioactivation (denoted as *) or detoxification of the drug [8]: CYP2B6*, CYP2C9* (CYP2E1*, CYP2A6*)
- Toxicity (mechanisms of toxicity) [8]: MI, OS, ST
